# Source: PMC12114619, “Nifuroxazide and 4-Hydroxybenzhydrazone Derivatives as New Antiparasitic (Trypanosoma cruzi and Leishmania mexicana) and Anti-Mycobacterium tuberculosis Agents” (Pharmaceutics, 2025)
# Several values for one entry are separate records, joined by “and”; a condition that tells them apart may be missing. Equal values may be shown once. Read-outs that look alike come from different tables or passages of the source.
# Tests used:
# [1] = system: T. cruzi NINOA (MHOM/MX/1994/NINOA) strain epimastigotes; assay: Trypanocidal activity, T. cruzi epimastigotes, NINOA strain (resazurin); format: cell-based, Trypanosoma cruzi; details: 48 h
# [2] = system: T. cruzi strain A1 epimastigotes; assay: Trypanocidal activity, T. cruzi epimastigotes, A1 strain (resazurin); format: cell-based, Trypanosoma cruzi; details: 48 h
# [3] = system: M. tuberculosis H37Rv (ATCC 27294); assay: Anti-Mycobacterium activity, microplate Alamar Blue Assay (MABA); format: cell-based, Mycobacterium tuberculosis; details: H37Rv strain, minimum concentration achieving 90% inhibition; for MIC: Mycobacterium tuberculosis
# Protocol: The reference strain H37Rv (ATCC 27294) of M. tuberculosis was utilized to assess anti-M. tuberculosis activity using the microplate Alamar Blue Assay (MABA), as previously reported. Samples underwent evaluation in triplicate independent experiments. Isoniazid, rifampicin, moxifloxacin, and linezolid were included as reference drugs, and the minimum drug concentration that achieved 90% inhibition was recorded as the minimum inhibitory concentration (MIC).
# [4] = system: L. mexicana MHOM/MX/2017/UABJO17FCQEPS promastigotes; assay: Leishmanicidal activity, L. mexicana promastigotes, FCQEPS isolate (MTT); format: cell-based, Leishmania mexicana; details: 48 h, FCQEPS strain
# Protocol: (§1) For leishmanicidal assays, the reference strain (MNYC/BZ/62/M379) and the isolate (MHOM/MX/2017/UABJO17FCQEPS) of L. mexicana were used. Promastigotes were cultured in RPMI 1640 medium supplemented with 10% FBS, 100 U/mL penicillin-100 […] streptomycin, and glutamine (2 mM). 100 µL parasites (5 × 10^5/mL) were added in a 96-well plate, and 100 µL of appropriate concentrations (0.78 to 200 µM) of each sample dissolved in DMSO and incubated for 48 h at 26 °C. Wells containing promastigotes with DMSO 0.2% were used as a negative control, and the reference drug glucantime was included as the positive control. The 3-(4,5-Dimethylthiazol-2-yl)-2,5-diphenyltetrazolium bromide (MTT) was used to measure metabolic activity. The IC50 values were calculated with the probit statistical tool. All samples were evaluated in triplicate in three independent experiments.
# [5] = system: L. mexicana MNYC/BZ/62/M379 promastigotes; assay: Leishmanicidal activity, L. mexicana promastigotes, M379 strain (MTT); format: cell-based, Leishmania mexicana; details: 48 h
# Protocol: as §1
# [6] = Cytotoxicity on macrophages (MTT); format: cell-based, mouse; details: mouse
# Protocol: Cytotoxicity was assessed on J774.2 mouse macrophage cells (ATCC® TIB-67, ATCC, Manassas, VA, USA). Cells were cultured in RPMI medium supplemented with 10% SFB, 100 U µg/mL penicillin-100 mg/mL streptomycin, and glutamine (2 mM) at 37 °C and in a 5% CO2 atmosphere. A known concentration of cells (1 × 10^6/mL) was incubated with the compounds at different concentrations (0.78 to 200 µM) for 48 h at 37 °C in a CO2 atmosphere (5%). Wells containing cells treated with 0.2% DMSO were used as a negative control. MTT was employed to evaluate the metabolic activity. Next, the cell viability was calculated (%), and the cytotoxic concentration (CC50) was determined with probit analysis. All samples were evaluated in triplicate in three independent experiments.
# [7] = Cytotoxicity (CC50) Macrophages J774.2
SMILES,IC50 ([1]; listed as Bzn),IC50 ([1]; Trypanosoma cruzi),IC50 [2],IC50 ([2]; Trypanosoma cruzi),MIC [3],MABA MIC [3],IC50 ([4]; Leishmania mexicana),IC50 L. mexicana M379 [5],IC50 ([5]; Leishmania mexicana),"CC50 at 48 h ([6]; J774.2 macrophage cells, J774.2 macrophages, 48 h, MTT, read-out: Cytotoxicity (CC50) Macrophages J774.2)",IC50 [1],IC50 [4],"CC50 at 48 h [6, 7]",IC50 T. cruzi NINOA [1],IC50 [5],IC50 ([1]; listed as Nfx)
"O=C(Cn1ccnc1[N+](=O)[O-])NCc1ccccc1 [Benznidazole, reference compound]",30 µM,> 30 µM,39.1 ± 0.7 µM,39 µM,,,,,,,,,,,,
"NNC(=O)c1ccncc1 [Isoniazid, reference compound]",,,,,0.039 µg/mL,,,,,,,,,,,
"CC(=O)NC[C@H]1CN(c2ccc(N3CCOCC3)c(F)c2)C(=O)O1 [Linezolid, reference compound]",,,,,0.33 µg/mL,,,,,,,,,,,
"COc1c(N2C[C@@H]3CCCN[C@@H]3C2)c(F)cc2c(=O)c(C(=O)O)cn(C3CC3)c12 [Moxifloxacin, reference compound]",,,,,0.184 µg/mL,,,,,,,,,,,
"O=C(N/N=C/c1ccc([N+](=O)[O-])o1)c1ccc(O)cc1 [Nfz, Nifuroxazide]",,36 ± 1.2 µM,10.4 ± 1.6 µM,10.4 µM,< 20 µg/mL,12.3 µg/mL,51.2 ± 4.2 µM,no leishmanicidal effects,> 200 µM,42.2 ± 2.3 µM,,,,,,
O=C(N/N=C/c1ccc([N+](=O)[O-])s1)c1ccc(O)cc1 [Nfz-1],,11.9 µM,14 ± 1.9 µM,< 15 µM,,,< 40 µM,no leishmanicidal effects,> 200 µM,,11.9 ± 3.2 µM,32.9 ± 7 µM,43.3 ± 2.7 µM,,,
O=C(N/N=C/c1ccc(Br)s1)c1ccc(O)cc1 [Nfz-2],,4.7 µM,,> 100 µM,< 20 µg/mL,18.8 µg/mL,98.8 ± 5.2 µM,no leishmanicidal effects,> 200 µM,,4.77 ± 5.6 µM,,95.5 ± 4.2 µM,,,
O=C(N/N=C/c1cccs1)c1ccc(O)cc1 [Nfz-3],,> 50 µM,20 ± 1.9 µM,19.9 µM,> 100 µg/mL,,49.8 ± 5 µM,no leishmanicidal effects,> 200 µM,,51 ± 2.8 µM,,,,,
O=C(N/N=C/c1ccco1)c1ccc(O)cc1 [Nfz-4],,18.8 µM,28.9 ± 3.4 µM,28.8 µM,> 100 µg/mL,,> 200 µM,,83.9 ± 6.9 µM,,19 ± 2.1 µM,,> 100 µM,,,
Cn1cccc1/C=N/NC(=O)c1ccc(O)cc1 [Nfz-5],,> 100 µM,78.5 ± 4.7 µM,> 100 µM,> 100 µg/mL,,> 200 µM,,5.2 µM,,,,21.9 ± 4.4 µM,inactivity,5.25 ± 5.8 µM,
O=C(N/N=C/c1ccccc1)c1ccc(O)cc1 [Nfz-6],,> 100 µM,74.4 ± 4.4 µM,> 70 µM,> 100 µg/mL,,> 200 µM,,> 90 µM,,,,28.8 ± 1.5 µM,inactive,94.22 ± 0.9 µM,
Cc1ccc(/C=N/NC(=O)c2ccc(O)cc2)cc1 [Nfz-7],,26 µM,75.2 ± 8.8 µM,> 70 µM,98.3 µg/mL,,103 ± 2.1 µM,,,,26 ± 2.9 µM,,91.7 ± 5.1 µM,,,
CCc1ccc(/C=N/NC(=O)c2ccc(O)cc2)cc1 [Nfz-8],,14.4 µM,7.28 ± 2.2 µM,7.2 µM,79.4 µg/mL,,> 200 µM,,,,14.5 ± 4.4 µM,,> 100 µM,,,
O=C(N/N=C/c1ccc(O)cc1)c1ccc(O)cc1 [Nfz-9],,24.9 ± 3.2 µM,,> 100 µM,94.1 µg/mL,,94.3 ± 5.9 µM,,,,,,82.7 ± 4.4 µM,,,
O=C(N/N=C/c1ccccc1O)c1ccc(O)cc1 [Nfz-10],,> 100 µM,8.77 ± 1.6 µM,8.7 µM,< 50 µg/mL,47.6 µg/mL,> 200 µM,,> 50 µM,,,,> 100 µM,,66.7 ± 2.9 µM,
COc1ccc(/C=N/NC(=O)c2ccc(O)cc2)cc1 [Nfz-11],,28.2 µM,18.2 ± 1.4 µM,18.1 µM,> 100 µg/mL,,> 200 µM,,> 200 µM,,28.2 ± 1.4 µM,,46.6 ± 4.9 µM,,,
COc1ccccc1/C=N/NC(=O)c1ccc(O)cc1 [Nfz-12],,> 100 µM,,> 100 µM,> 100 µg/mL,,60.3 ± 4.7 µM,,< 20 µM,,,,76.5 ± 3.6 µM,inactivity,11.5 µM and 11.6 µM,
COc1cccc(/C=N/NC(=O)c2ccc(O)cc2)c1OC [Nfz-13],,> 60 µM,,> 100 µM,158 µg/mL,,124.5 ± 1.1 µM,,162 ± 6.9 µM,,63.1 ± 1.4 µM,,> 100 µM,,,
COc1cc(/C=N/NC(=O)c2ccc(O)cc2)cc(OC)c1OC [Nfz-14],,28 ± 1.9 µM,29.2 ± 4.4 µM,29.2 µM,> 200 µg/mL,,10.2 µM,,> 200 µM,,,10.3 ± 0.8 µM,> 100 µM,,,
O=C(N/N=C/c1ccc(F)cc1)c1ccc(O)cc1 [Nfz-15],,> 100 µM,32.6 ± 2.8 µM,< 50 µM,> 100 µg/mL,,102 ± 2.7 µM,,~30 µM,,,,74 ± 3.4 µM,loss of trypanocidal activity,35.1 ± 4.7 µM,
O=C(N/N=C/c1ccc(Cl)cc1)c1ccc(O)cc1 [Nfz-16],,> 100 µM,40.2 ± 2.7 µM,< 50 µM,< 50 µg/mL,46.4 µg/mL,78.1 ± 3.6 µM,,> 60 µM,,,,83.2 ± 3.2 µM,loss of trypanocidal activity,67.5 ± 4 µM,
O=C(N/N=C/c1ccc(Br)cc1)c1ccc(O)cc1 [Nfz-17],,> 100 µM,33.6 ± 3.9 µM,< 50 µM,< 50 µg/mL,43.6 µg/mL,52.1 ± 4.8 µM,,> 60 µM,,,,> 100 µM,loss of trypanocidal activity,62 ± 2.5 µM,
O=C(N/N=C/c1ccccc1[N+](=O)[O-])c1ccc(O)cc1 [Nfz-19],,36.4 µM,42.5 ± 6.7 µM,42.4 µM,> 100 µg/mL,,> 200 µM,,> 100 µM,,36.5 ± 2.2 µM,,> 100 µM,,146.7 ± 0.7 µM,
O=C(N/N=C/c1ccc2ccccc2c1)c1ccc(O)cc1 [Nfz-20],,> 100 µM,24.5 ± 2 µM,24.4 µM,> 100 µg/mL,,> 200 µM,,< 30 µM,,,,88.3 ± 3.9 µM,loss of the activity,28.4 ± 2.8 µM,
CC(=O)Nc1ccc(/C=N/NC(=O)c2ccc(O)cc2)cc1 [Nfz-24],,,22.2 ± 1.4 µM,22.1 µM,> 100 µg/mL,,55.8 ± 3.5 µM,,54.1 µM,,,,> 100 µM,,54.2 ± 4 µM,
"CC1CS(=O)(=O)CCN1/N=C/c1ccc([N+](=O)[O-])o1 (stereo not drawn) [Nifurtimox, reference compound]",,> 7 µM,,19.3 ± 0.8 µM,,,,,,,7.09 ± 0.2 µM,,,,,7 µM
"CO[C@H]1/C=C/O[C@@]2(C)Oc3c(C)c(O)c4c(O)c(c(/C=N/N5CCN(C)CC5)c(O)c4c3C2=O)NC(=O)/C(C)=C\C=C\[C@H](C)[C@H](O)[C@@H](C)[C@@H](O)[C@@H](C)[C@H](OC(C)=O)[C@@H]1C [Rifampin, reference compound]",,,,,0.074 µg/mL,,,,,,,,,,,
